By IC50 is commonly meant the concentration needed to halve the response being measured. A higher IC50 goes with a need for much substance.

For the experiment, the target named is Insulin-like growth factor 1 receptor (Homo sapiens, UniProt P08069). Nature of the experiment: Biologic and Pharmacologic Assay. On the procedure:
The media was removed and replaced by 50 μL of 1× lysis buffer from the AlphaLISA kit (with 1× of cOmplete™ protease inhibitor). The plates were sealed, and cells were allowed to lyse for 10 min in the shaker before storing the plate at −20° C. until used. The AlphaLISA assay with processed cell lysates were performed as described in the protocol. Briefly, 10 μL of the undiluted sample were loaded to 384 well Optiplates and 5 μL of the acceptor mix (as described in the AlphaLISA kit) was added to each well. The plates were sealed and briefly vortexed followed by the incubation at RT for 3 hours. In the dark, 5 μL of donor mix was added to each well. All plates were sealed and stored at RT overnight. The plates were read in EnVision reader using standard AlphaLISA settings.Compound activity was analyzed using CBIS data analysis suite (ChemInnovation, CA).

The structures appear in SMILES notation. A value given as a limit tells only on which side of the number the result lay.

Chain of Insulin-like growth factor 1 receptor (P08069 31-736 limits assumed): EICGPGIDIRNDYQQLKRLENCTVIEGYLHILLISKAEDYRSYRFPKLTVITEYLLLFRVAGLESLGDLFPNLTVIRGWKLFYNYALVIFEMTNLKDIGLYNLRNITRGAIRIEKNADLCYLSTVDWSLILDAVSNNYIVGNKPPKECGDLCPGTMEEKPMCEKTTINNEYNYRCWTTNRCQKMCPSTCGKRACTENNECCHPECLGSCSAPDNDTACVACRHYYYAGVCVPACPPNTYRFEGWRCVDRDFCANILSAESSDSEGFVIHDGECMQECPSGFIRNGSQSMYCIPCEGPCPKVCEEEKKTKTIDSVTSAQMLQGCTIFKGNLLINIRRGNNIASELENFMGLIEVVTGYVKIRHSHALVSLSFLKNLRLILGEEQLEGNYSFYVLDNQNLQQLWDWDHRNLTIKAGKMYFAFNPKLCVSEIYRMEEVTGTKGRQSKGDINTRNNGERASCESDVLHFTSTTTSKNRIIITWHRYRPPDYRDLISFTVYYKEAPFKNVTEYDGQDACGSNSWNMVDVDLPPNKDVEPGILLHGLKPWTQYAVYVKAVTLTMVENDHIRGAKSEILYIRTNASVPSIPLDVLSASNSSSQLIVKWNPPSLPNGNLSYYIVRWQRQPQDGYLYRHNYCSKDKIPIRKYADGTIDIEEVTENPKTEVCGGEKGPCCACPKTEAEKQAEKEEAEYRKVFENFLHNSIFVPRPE
Chain of Insulin-like growth factor 1 receptor (P08069 741-1367 limits assumed): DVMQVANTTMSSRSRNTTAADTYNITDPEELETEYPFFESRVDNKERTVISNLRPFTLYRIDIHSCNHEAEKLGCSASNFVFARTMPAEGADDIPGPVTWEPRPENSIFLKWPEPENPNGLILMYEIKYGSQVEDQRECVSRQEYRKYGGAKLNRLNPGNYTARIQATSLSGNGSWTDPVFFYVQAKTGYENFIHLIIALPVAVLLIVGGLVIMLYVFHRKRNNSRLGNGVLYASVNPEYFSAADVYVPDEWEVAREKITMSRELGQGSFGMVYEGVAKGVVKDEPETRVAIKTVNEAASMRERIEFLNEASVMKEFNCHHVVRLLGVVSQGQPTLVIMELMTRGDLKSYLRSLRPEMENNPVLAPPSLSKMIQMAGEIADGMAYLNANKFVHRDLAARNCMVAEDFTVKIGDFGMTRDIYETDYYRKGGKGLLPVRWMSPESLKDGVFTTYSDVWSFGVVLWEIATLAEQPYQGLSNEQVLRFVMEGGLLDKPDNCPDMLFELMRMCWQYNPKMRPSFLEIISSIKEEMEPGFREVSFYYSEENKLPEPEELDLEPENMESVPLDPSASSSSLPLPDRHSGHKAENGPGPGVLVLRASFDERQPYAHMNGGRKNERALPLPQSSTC

Compound `COc1cc(Nc2nccc(Nc3cnc4ccccc4c3)n2)ccc1N1CCC(N2CCCCC2)CC1` [US20250171431, Compound 1] gave a concentration for half-maximal inhibition (IC50) below 0.5 µM.

`COc1cc(Nc2nccc(Nc3cnc4cncc(F)c4c3)n2)cnc1O[C@H]1C[C@@H](N(C)C)C1` [US20250171431, Compound 88] gave a concentration for half-maximal inhibition (IC50) below 0.5 µM.

On to `COc1cc(N2CCN(C)CC2)ncc1Nc1nccc(Nc2cc3cccc(F)c3nc2O)n1` [US20250171431, Compound 91], for which the IC50 is below 0.5 µM.

In turn, `COc1cc(Nc2nccc(Nc3cnc4ccccc4c3)n2)ccc1N1CCC(N(C)C)CC1` [US20250171431, Compound 95] had an IC50 below 0.5 µM.

Compound `COc1cc(Nc2nccc(Nc3cc4c(F)cccc4[nH]c3=O)n2)ccc1O[C@H]1C[C@@H](N(C)C)C1` [US20250171431, Compound 123] came in with a 50% inhibitory concentration (IC50) below 0.5 µM.

In the case of `COc1cc(Nc2nccc(Nc3ccc(C4CC4)nc3C(N)=O)n2)ccc1O[C@H]1C[C@@H](N(C)C)C1` [US20250171431, Compound 124], the IC50 was below 0.5 µM.

`COc1cc(Nc2nccc(Nc3cc(F)c4ncc(Br)cc4c3)n2)ccc1O[C@H]1C[C@@H](N(C)C)C1` [US20250171431, Compound 133] gave an IC50 below 0.5 µM.

In turn, `COc1cc(Nc2nccc(Nc3ccc4ncc(Cl)nc4c3)n2)ccc1O[C@H]1C[C@@H](N(C)C)C1` [US20250171431, Compound 134] gave an IC50 below 0.5 µM.

Consider `COc1cc(Nc2nccc(Nc3cc4cccc(F)c4[nH]c3=O)n2)cnc1N1CCC(N(C)C)CC1` [US20250171431, Compound 164], for which the IC50 was below 0.5 µM.

For the compound `COc1cc(Nc2nccc(Nc3cc4cccc(F)c4[nH]c3=O)n2)ccc1C1CCNCC1(F)F` (stereo not given) [US20250171431, Compound 208], the IC50 was below 0.5 µM.

`COc1cc(C2CCNCC2(F)F)ccc1Nc1nccc(Nc2cc3cccc(F)c3[nH]c2=O)n1` (stereo not given) [US20250171431, Compound 222] showed an IC50 below 0.5 µM.

`COc1cc(Nc2nccc(Nc3cc4cc(Cl)ccc4[nH]c3=O)n2)ccc1O[C@H]1CC[C@@H](N(C)C)CC1` [US20250171431, Compound 247] yielded an IC50 below 0.5 µM.

Consider `COc1cc(Nc2nccc(Nc3cc4cccc(F)c4nc3O)n2)cnc1O[C@@H]1C[C@H](N(C)C)C1(C)C` [US20250171431, Compound 253], for which the IC50 was above 10 µM.

`COc1cc(Nc2nccc(Nc3cc4ccccc4nc3C#N)n2)cnc1O[C@H]1C[C@@H](N(C)C)C1` [US20250171431, Compound 269]: the IC50 was above 10 µM.

Consider `COc1cc(Nc2nccc(Nc3cnc4c(c3)OC(C)(C)C(=O)N4)n2)ccc1O[C@H]1C[C@@H](N(C)C)C1` [US20250171431, Compound 288], for which the IC50 was in the range of 0.5 to 2 µM.

`O=S1(=O)CCN([C@H]2CC[C@@H](Oc3ccc(Nc4nccc(Nc5cnc6ccc(Cl)cc6c5)n4)cc3)CC2)CC1` [US20250171431, Compound 309] returned an IC50 below 0.5 µM.

On to `COc1cc(Nc2nccc(Nc3cnc4c(Cl)cccc4c3)n2)ccc1O[C@H]1C[C@@H](N(C)C)C1` [US20250171431, Compound 344], for which the IC50 is below 0.5 µM.

The compound `COc1cc(Nc2nccc(Nc3cnc4ccc(C#N)cc4c3)n2)ccc1OCCCN1CCCCC1` [US20250171431, Compound 392] gave an IC50 below 0.5 µM.

For `COc1cc(Nc2nccc(Nc3cnc4cc(Cl)ccc4c3)n2)ccc1OCCCN1CCCCC1` [US20250171431, Compound 428], the IC50 was below 0.5 µM.

Consider `COc1cc(Nc2nccc(Nc3cnc4ccc(Cl)cc4c3)n2)cnc1N1CCNC(C(F)F)C1` (stereo not given) [US20250171431, Compound 483], for which the IC50 was below 0.5 µM.

The record behind these values is BindingDB's records for patent US20250171431 (Horizon Therapeutics Ireland Dac, 2025).
